Data on 63 molecules can be found in a melting point compilation (Tetko et al.; mined from patent text by program, amines drawn as free bases though some values may be those of a salt).

A value given as a limit tells only on which side of the number the result lay.

As a reminder, the melting point is the temperature of the solid-liquid transition.

Molecule `Cc1cc2nc(C)c(=O)[nH]c2cc1C` yielded a melting point of 306 to 308 °C.

The molecule `CC(C)OC(=O)c1cc(-n2c(=O)c3c(n(C)c2=O)OCC3)c(F)cc1Cl` had a melting point of 170 to 173 °C.

`CCOC(=O)C1=C(COCCNC(N)=S)NC(C)=C(C(=O)OC)C1c1ccccc1Cl` (stereo not drawn) displayed a melting point of 204 °C.

In the case of `Cc1nnc(-n2cc(C(=O)N3CCCC3)c3c4cc(F)ccc4n(C)c3c2=O)s1`, the melting point was 299 to 301 °C.

In turn, `O=C(O)CCn1c2ccc(O)cc2c2c3c(c(-c4ccccc4Cl)cc21)C(=O)NC3=O` displayed a melting point of 286 °C.

In turn, `COc1ccc(-c2coc3ccc(-c4nnc(S)o4)cc23)cc1` returned a melting point of 204 to 205 °C. The value for `CC(CN(C)C)N1c2ccccc2Sc2ccc(C(=S)NCC3CCCCC3)cc21` (racemic) was 167 °C; that for `COc1cc(C=CC(=O)c2ccc([N+](=O)[O-])cc2)cc(OC)c1` was 166 °C; that for `Cc1ccc(-n2nc(C)c(NC(N)=S)c2C)cc1` was 240 to 241 °C.

As to `COCCn1c(=O)[nH]c2ncc(-c3ccc(O)cc3)nc21`, the melting point was 236 to 237 °C. The same measure for `Cc1cccc(N2CCN(c3ccc(S(C)(=O)=O)nn3)CC2)c1`: 201 °C; for `CC12CC(N3CCC(=O)CC3)C(O)CC1CCC1C2CCC2(C)C(O)C(N3CCCC3)CC12` (stereo not drawn): 136 to 138 °C. Take `CCOC(=O)c1[nH]c2ccc(Cl)c(F)c2c1S(=O)(=O)c1cc(C)cc(C)c1`: the melting point fell in the range of 224 to 226 °C. The same measure for `COC(=O)c1ccccc1S(=O)(=O)Nn1c(SC)nn(-c2nc(OC)cc(OC)n2)c1=O`: 179 °C; for `CCOc1ccc(CCCCCCC(=O)O)cc1`: 65 to 66 °C. The value for `CCOC(=O)NC(=O)C(C#N)=CNc1c(Cl)cc(Cl)cc1Cl` was 245 to 247 °C.

`Cc1ccc(NC(=O)N(C)C(c2cnc(C(F)F)nc2Cl)C(C)C)cc1` (stereo not drawn) came in with a melting point of 135 to 137 °C. The same measure for `CC(C)CNC(=O)[C@H](C)C[C@H](O)[C@H](CC1CCCCC1)NC(=O)OC(C)(C)C`: 125 to 126 °C; for `Cc1nc2ccc3c(c2o1)OC(CNC1CCC(c2c[nH]c4ccc(F)cc24)C1)CO3` (stereo not drawn): 79 to 82 °C; for `Cn1nc(-c2nc(O)c(Cl)cc2F)c(Cl)c1OC(F)F`: 126 to 128 °C.

Molecule `COc1ccc2c(c1)C(c1ccc(N)cc1)=NN(C(C)=O)C(C)C2` (stereo not drawn) had a melting point of 237 to 238 °C. `COc1ccc(C(C#N)C(=O)C(=O)C(C#N)c2ccccc2)cc1` (stereo not drawn) gave a melting point of 256 to 258 °C. The same measure for `CC1=C(Cl)CC2C(=O)OC(=O)C2C1` (stereo not drawn): 76 to 78 °C. For the molecule `COC(c1ccccc1)C1CCCCCC(Cc2ccccc2)C1=O` (stereo not drawn), the melting point lay in the range of 83 to 84 °C. The same measure for `c1csc(-c2nc3cc(COc4ccc(CCCn5ccnc5)cc4)ccc3o2)c1`: 130 to 131 °C; for `CCOC(=O)C(C(=O)N(C)C)=C(OC)c1ccc(Cl)cc1Cl`: 88 to 92 °C; for `COc1cccc([C@H]2CCCN2[S@@](=O)C(C)(C)C)c1`: 45 to 50 °C. The same measure for `CC#CC(=O)N[C@H]1CC[C@H](CCN2CCN(c3nccc4c3CCO4)CC2)CC1`: 193 °C; for `Nc1nc(N)c2cc(C=Cc3ccc(C(=O)O)cc3)cnc2n1`: greater than 300 °C; for `COc1cc(C2=C(c3c[nH]c4cccnc34)C(=O)NC2=O)cc(OC)c1OC`: 274 to 275 °C.

Turning to `COc1ccc2nc3cc(OC)c(=O)cc-3sc2c1`, the melting point is 237 to 238 °C. The value for `CCOC(=O)c1cn(-c2ccc([N+](=O)[O-])cn2)cn1` was 212 to 214 °C; that for `COC(=O)C1(O)CC(OC(C)=O)C(NC(=O)Cc2cc(=O)oc3cc(OC(C)=O)ccc23)C(C(OC(C)=O)C(COC(C)=O)OC(C)=O)O1` (stereo not drawn) was 105 °C.

In the case of `CCN(CC)OC(=Nc1c(C(C)C)cccc1C(C)C)Nc1c(C(C)C)cccc1C(C)C`, the melting point is 113 to 116 °C. In turn, `COc1cc(C(C)C)c2c(c1)S(=O)(=O)N(COC(=O)c1c(C)noc1C)C2=O` displayed a melting point of 137 to 139 °C. Turning to `CNc1ccc(Cl)cc1C(O)c1ccccc1Cl` (stereo not drawn), the melting point is 106 to 108 °C. The value for `CC(O)(CSc1ccc(S(=O)(=O)c2ccccc2)cc1)C(F)(F)F` (stereo not drawn) was 100 to 102 °C; that for `C=C(C(=O)Nc1ccc(CCc2nnco2)cc1)c1cnn(C)c1-c1ccc(F)cc1` was 177 to 178 °C; that for `COc1cc(O)c(C=O)c(-c2nc(C)no2)c1C` was 135 to 136 °C. The same measure for `C#CCNC(=NCCSCc1ccc(CN(C)C)o1)NC#N`: 122 to 124 °C; for `OCC(O)CN1CCN(c2ccc(Cl)nn2)CC1` (stereo not drawn): 126 to 128 °C. Regarding `CC1CN(C(=O)COc2nc(-c3ccc(Cl)cc3)nc3c2CCCC3)CC(C)O1` (stereo not drawn), the melting point was 265 to 268 °C. The value for `C[C@H](NC(=O)c1ccc[nH]1)C(=O)NC(C=O)CC(=O)O` (stereo partly drawn) was 96 to 100 °C; that for `Cc1nc(-c2ccncc2)sc1-c1cccnc1` was 113 to 114 °C. The value for `COc1cc(CC(=O)O)ccc1SCc1sc(-c2ccc(C(F)(F)F)cc2)nc1C` was 181 to 182 °C; that for `CC(=O)c1ccc(OCCC2CCN(c3cc(Cl)nnc3Cl)CC2)cc1` was 99 to 100 °C. In the case of `O=C(NC1CCN(CCCOc2ccc3c4c(c(=O)oc3c2)CCCC4)CC1)c1ccccc1O`, the melting point was in the range of 209 to 211 °C. Consider `Cc1ccc(C(O)C2C(c3ccccc3)CC(=O)N2C)s1` (stereo not drawn), for which the melting point is 185 to 188 °C. The same measure for `Cc1cccc(N2Cc3nc(C(=O)O)nn3-c3ccccc32)c1C`: 195 to 197 °C; for `CN(C)c1nc2sc3c(NCCN4CCOCC4)ncnc3c2c2c1COC(C)(C)C2`: 195 to 196 °C. The same measure for `COc1ccc(C(=O)c2ccc3[nH]c(=O)nc(-c4cccc(Cl)c4)c3c2)cc1`: 248 °C; for `CCC/C=C\c1nc(Cl)c(CO)n1Cc1ccc(-c2ccccc2)c(C(=O)O)c1`: 148 to 150 °C; for `COc1c(C(C)C)cc(S(N)(=O)=O)c(C)c1C(=O)NCC1CCCN1CC1CC1` (stereo not drawn): 125 °C. `CN(Cc1ccccc1)Cc1c(-c2ccccc2)sc(N)c1C(=O)c1ccc(Cl)cc1` had a melting point of 86 to 88 °C. `Cc1c(C2CCN(Cc3ccc(Cl)cc3)CC2)n[nH]c1-c1ccccc1` gave a melting point of 192 to 193 °C. With `O=S1(=O)N=C(NC2CC2)Nc2cc(Cl)sc21`, the melting point fell in the range of 272 to 273 °C. The same measure for `COCOc1ccc(Cl)cc1-c1cc(-c2cccc(N)c2)c(C#N)c(NC(=O)c2ccccc2)n1`: 174 to 175 °C; for `C#Cc1cc2c(Nc3ccc4c(cnn4Cc4ccccc4)c3)ncnc2s1`: 195 °C; for `O=C(O)[C@@H]1CN[C@H](C(=O)O)C1`: 219 to 220 °C. The same measure for `COc1ccc(O)c(C2C(=O)Nc3cccc(Br)c32)n1` (stereo not drawn): 149 to 152 °C. The value for `CCOC(=O)Cc1c(C(=O)OCC)c(Br)c(C(=O)c2ccc(Cl)cc2)n1C` was 88 to 90 °C; that for `CCC1(CCn2ccnc2)SCCS1` was 118 to 121 °C; that for `CCN1C(=S)NNC1c1ccccc1NC(C)=O` (stereo not drawn) was 193 to 194 °C.
